Experimental data published in US20140363391A1, “SYSTEM AND METHOD FOR ADMINISTERING POLOXAMERS AND ANESTHETICS WHILE PERFORMING CPR AND MINIMIZING REPERFUSION INJURY” (priority 2013, published 2014).

System: animals receiving CPR
Test: Animal studies with administration of an anesthetic gas during CPR
Type: in vivo
Settings: compared with other inhaled anesthetics
Source text: In one embodiment, the administered anesthetic includes sevoflurane. Other volatile anesthetics that may be administered include: halothane, enflurane, and desflurane isoflurane, xenon, helium and the like. […] These anesthetics may provide protective effects when administered before or during CPR and help stabilize the brain, heart, or body to help the heart, brain, and/or body to stay fresh. It is believed that some anesthetic agents provide these effects by attenuating the mitochondrial membrane permeability, or manipulating and protecting the mitochondrial membrane pores. It is believed that during ischemia, permeability pores in the mitochondria cell membrane open up causing the mitochondria to swell. In such a condition, the mitochondria are destroyed or damaged when blood flow is reestablished. The anesthetic may help protects against such damage, especially if the anesthetic is delivered or delivery is initiated early in reestablishing blood flow. Some volatile anesthetics like Xenon provide anesthesia by non-competitive inhibit N-methyl-D-aspartate receptors. Due to the fact that reperfusion injury occurs very early during the resuscitation efforts (within 2-3 minutes from the imitation of CPR) it is preferable that the anesthetic is delivered or delivery is initiated within the first 5 minutes of CPR efforts. […]

FCOC(C(F)(F)F)C(F)(F)F [Sevoflurane, sevoflurane]
cardiodepressant effects: less of cardiodepressant effects
protection from reperfusion injury: significant protection from reperfusion injury
